Data set [1] in a line: Small angle x-ray diffraction of cholesterol-enriched reconstituted membranes (cholesterol domain formation). The data set is classed as physicochemical. The conditions noted are these: for d-space of surrounding sterol-poor membrane region: 5° C., 74% relative humidity.
Data set [2] relates to coronary artery disease. The conditions noted are these: cited from earlier work.
The test system of data set [3] is rabbit aorta endothelial cell. The data set can be described thus: NO release from a single rabbit aorta endothelial cell (porphyrinic sensor). The conditions noted are these: after injection of atorvastatin; 37° C. It counts as cell-based. Here is the method: NO release measurements. All measurements presented were recorded in vitro. NO release was measured directly from a single endothelial cell in the rabbit aorta. Measurements were done in Hank's balance solution at 37° C. […] The sensor operated with a three-electrode system [sensor working electrode, platinum wire (0.1 mm) counter electrode, and saturated calomel electrode (SCE—reference electrode)]. The three electrodes were connected to a potentiostat/galvanostat PAR273. Data were acquired with the use of an IBM computer with custom software. […] SCE. The release of NO was initiated by the injection of potential agonists of endothelial NO synthase (eNOS) using a temtoinjector placed in the controlled distance from the endothelial cell. Two different agonists were tested: amlodipine and atorvastatin. The different concentrations of these two compounds applied simultaneously were also tested.

Data set [4] concerns stable and advanced CAD. The conditions noted are these: compared to angioplasty with usual medical care; cited from earlier work.
The mark [5] stands for this setting: 1.1:1 cholesterol to phospholipid mole ratio, 5° C. (FIG. 5).
The mark [6] stands for this setting: 1.2:1 cholesterol to phospholipid mole ratio, 5° C. (FIG. 4).
[7] abbreviates: 1.2:1 cholesterol to phospholipid mole ratio.

In the case of `CCOC(=O)C1=C(COCCN)NC(C)=C(C(=O)OC)C1c1ccccc1Cl` (centres unmarked) [AML, Amlodipine besylate], the “effect on cholesterol domain formation” value in data set [1] (setting [5]) is reported as “no effect on domain formation”. Besides, in data set [1] (setting [6]), the “effect on cholesterol domain formation” value is recorded as “did not interfere with domain formation”. In data set [1] (setting [7]), the “d-space of surrounding sterol-poor membrane region” value is recorded as 57.8 Å. The “progression of carotid atherosclerosis” value in data set [2] (B-mode ultrasonographic assessments) is reported as “significant slowing”. In addition, in data set [2] (compared to placebo), the “reduction in documented angina” value is on record as 33% and the “reduction in the need for revascularization” value is reported as 42%.

Take `CC(C)c1c(C(=O)Nc2ccccc2)c(-c2ccccc2)c(-c2ccc(F)cc2)n1CC[C@@H](O)C[C@@H](O)CC(=O)[O-].CC(C)c1c(C(=O)Nc2ccccc2)c(-c2ccccc2)c(-c2ccc(F)cc2)n1CC[C@@H](O)C[C@@H](O)CC(=O)[O-].[Ca+2]` [AT, atorvastatin calcium]: the “effect on cholesterol domain formation” value is recorded as “no effect on domain formation” in data set [1] (setting [5]) and “did not interfere with domain formation” in data set [1] (setting [6]). Further, the “d-space of surrounding sterol-poor membrane region” value in data set [1] (1.1:1 cholesterol to phospholipid mole ratio) is 55.8 Å; in data set [1] (setting [7]), 56.8 Å. Besides, the “maximum NO concentration released” value in data set [3] came out at 20 ± 5 nmol/L. The “reduction of overall incidence of cardiovascular events” value in data set [4] is on record as 36%. Moreover, the “time to a first ischemic event” value in data set [4] is reported as “significantly delayed”.

Take `COc1ccc(CCN(C)CCCC(C#N)(c2ccc(OC)c(OC)c2)C(C)C)cc1OC` (centres unmarked) [verapamil]: the “width of cholesterol monohydrate crystalline domains” value in data set [1] (samples containing verapamil, unaffected by temperature (93% relative humidity) or relative humidity (20° C.)) was found to be 34.0 Å.

Source of the values: patent US6835742B2, “Synergistic effect of amlodipine and atorvastatin on cholesterol crystal formation inhibition and aortic endothelial cell nitric oxide release” (priority 2000, dated 2004).
